Experimental data taken from patent US7423061B2, “Substitute thiophenes and uses thereof” (AstraZeneca AB, priority 2003, dated 2008).
Structures can show the parent of a compound that is named as a salt.

Biological target: T1, CHK1 kinase (Homo sapiens, UniProt O14757)
T1 construct: The kinase domain is expressed in baculovirus and purified by the GST tag; GST; made in house
T1 sequence (O14757 9-265 limits assumed): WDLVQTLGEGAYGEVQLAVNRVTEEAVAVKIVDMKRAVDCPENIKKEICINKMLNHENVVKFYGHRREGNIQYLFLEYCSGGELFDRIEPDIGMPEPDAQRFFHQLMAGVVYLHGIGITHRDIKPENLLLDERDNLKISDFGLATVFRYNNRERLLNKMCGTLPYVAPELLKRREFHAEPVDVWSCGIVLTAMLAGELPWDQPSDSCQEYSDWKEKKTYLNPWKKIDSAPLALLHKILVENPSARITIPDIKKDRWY
Assay: Checkpoint Kinase 1 Assay (Scintillation Proximity Assay)
Assay type: biochemical
Settings: assay not given; IC50s are determined in the Checkpoint Kinase 1 assay
Description: Checkpoint Kinase 1 Assay: This in vitro assay measures the inhibition of CHK1 kinase by compounds. The kinase domain is expressed in baculovirus and purified by the GST tag. Purified protein and biotinylated peptide substrate (Cdc25C) is then used in a 384 well automated Scintillation Proximity Assay (SPA). Specifically, peptide, enzyme and reaction buffer are mixed and aliquoted into a 384 well plate containing dilution series of compounds and controls. Cold and hot ATP are then added to initiate the reaction. After 2 hours, a SPA bead slurry, […] and EDTA are added to stop the reaction and capture the biotinylated peptide. Plates are then counted on a Topcount. Data is analyzed and IC50s determined for individual compounds.

CCN(CC)CCOc1ccc(-c2cc(C(=O)NC3CCCNC3)c(NC(N)=O)s2)cc1 (stereo not shown) [Example 2, 2-[(aminocarbonyl)amino]-5-{4-[2-(diethylamino)ethoxy]phenyl}-N-piperidin-3-ylthiophene-3-carboxamide trifluoroacetate]
IC50: 0.01 µM
